pIC50: −log10 of the molar value.
Molecular target: ROS (Homo sapiens, UniProt P08922)
Test: In vitro ROS enzymatic reaction assay (HTRF, Cisbio)
Type: biochemical
Design: ROS or EGFR enzyme, 0.008 ng/ul
Conditions: for inhibition at 10 µM / inhibition at 5 µM / Kinase Inhib. 5 uM (%) / Kinase Inhib. 10 uM (%): ROS kinase; for inhibition at 10 µM / Kinase Inhib. 10 uM (%): compound at 10 uM; for inhibition at 10 µM: read-out: Kinase Inhib. 10 uM (%); for inhibition at 5 µM / Kinase Inhib. 5 uM (%): compound at 5 uM; for inhibition at 5 µM: read-out: Kinase Inhib. 5 uM (%)
Method: The ROS enzymatic reactions were carried out with a high throughput screening platform for phosphor-detection of kinase activity. This platform based on homogeneous time resolved fluorescence (HTRF) technology from Cisbio Bioassays, Inc. (Cisbio). […] The reaction was allowed to proceed for 30 minutes at room temperature. An equal volume of detection buffer was then added to the reaction mix.

Sequence of ROS (P08922 28-2347): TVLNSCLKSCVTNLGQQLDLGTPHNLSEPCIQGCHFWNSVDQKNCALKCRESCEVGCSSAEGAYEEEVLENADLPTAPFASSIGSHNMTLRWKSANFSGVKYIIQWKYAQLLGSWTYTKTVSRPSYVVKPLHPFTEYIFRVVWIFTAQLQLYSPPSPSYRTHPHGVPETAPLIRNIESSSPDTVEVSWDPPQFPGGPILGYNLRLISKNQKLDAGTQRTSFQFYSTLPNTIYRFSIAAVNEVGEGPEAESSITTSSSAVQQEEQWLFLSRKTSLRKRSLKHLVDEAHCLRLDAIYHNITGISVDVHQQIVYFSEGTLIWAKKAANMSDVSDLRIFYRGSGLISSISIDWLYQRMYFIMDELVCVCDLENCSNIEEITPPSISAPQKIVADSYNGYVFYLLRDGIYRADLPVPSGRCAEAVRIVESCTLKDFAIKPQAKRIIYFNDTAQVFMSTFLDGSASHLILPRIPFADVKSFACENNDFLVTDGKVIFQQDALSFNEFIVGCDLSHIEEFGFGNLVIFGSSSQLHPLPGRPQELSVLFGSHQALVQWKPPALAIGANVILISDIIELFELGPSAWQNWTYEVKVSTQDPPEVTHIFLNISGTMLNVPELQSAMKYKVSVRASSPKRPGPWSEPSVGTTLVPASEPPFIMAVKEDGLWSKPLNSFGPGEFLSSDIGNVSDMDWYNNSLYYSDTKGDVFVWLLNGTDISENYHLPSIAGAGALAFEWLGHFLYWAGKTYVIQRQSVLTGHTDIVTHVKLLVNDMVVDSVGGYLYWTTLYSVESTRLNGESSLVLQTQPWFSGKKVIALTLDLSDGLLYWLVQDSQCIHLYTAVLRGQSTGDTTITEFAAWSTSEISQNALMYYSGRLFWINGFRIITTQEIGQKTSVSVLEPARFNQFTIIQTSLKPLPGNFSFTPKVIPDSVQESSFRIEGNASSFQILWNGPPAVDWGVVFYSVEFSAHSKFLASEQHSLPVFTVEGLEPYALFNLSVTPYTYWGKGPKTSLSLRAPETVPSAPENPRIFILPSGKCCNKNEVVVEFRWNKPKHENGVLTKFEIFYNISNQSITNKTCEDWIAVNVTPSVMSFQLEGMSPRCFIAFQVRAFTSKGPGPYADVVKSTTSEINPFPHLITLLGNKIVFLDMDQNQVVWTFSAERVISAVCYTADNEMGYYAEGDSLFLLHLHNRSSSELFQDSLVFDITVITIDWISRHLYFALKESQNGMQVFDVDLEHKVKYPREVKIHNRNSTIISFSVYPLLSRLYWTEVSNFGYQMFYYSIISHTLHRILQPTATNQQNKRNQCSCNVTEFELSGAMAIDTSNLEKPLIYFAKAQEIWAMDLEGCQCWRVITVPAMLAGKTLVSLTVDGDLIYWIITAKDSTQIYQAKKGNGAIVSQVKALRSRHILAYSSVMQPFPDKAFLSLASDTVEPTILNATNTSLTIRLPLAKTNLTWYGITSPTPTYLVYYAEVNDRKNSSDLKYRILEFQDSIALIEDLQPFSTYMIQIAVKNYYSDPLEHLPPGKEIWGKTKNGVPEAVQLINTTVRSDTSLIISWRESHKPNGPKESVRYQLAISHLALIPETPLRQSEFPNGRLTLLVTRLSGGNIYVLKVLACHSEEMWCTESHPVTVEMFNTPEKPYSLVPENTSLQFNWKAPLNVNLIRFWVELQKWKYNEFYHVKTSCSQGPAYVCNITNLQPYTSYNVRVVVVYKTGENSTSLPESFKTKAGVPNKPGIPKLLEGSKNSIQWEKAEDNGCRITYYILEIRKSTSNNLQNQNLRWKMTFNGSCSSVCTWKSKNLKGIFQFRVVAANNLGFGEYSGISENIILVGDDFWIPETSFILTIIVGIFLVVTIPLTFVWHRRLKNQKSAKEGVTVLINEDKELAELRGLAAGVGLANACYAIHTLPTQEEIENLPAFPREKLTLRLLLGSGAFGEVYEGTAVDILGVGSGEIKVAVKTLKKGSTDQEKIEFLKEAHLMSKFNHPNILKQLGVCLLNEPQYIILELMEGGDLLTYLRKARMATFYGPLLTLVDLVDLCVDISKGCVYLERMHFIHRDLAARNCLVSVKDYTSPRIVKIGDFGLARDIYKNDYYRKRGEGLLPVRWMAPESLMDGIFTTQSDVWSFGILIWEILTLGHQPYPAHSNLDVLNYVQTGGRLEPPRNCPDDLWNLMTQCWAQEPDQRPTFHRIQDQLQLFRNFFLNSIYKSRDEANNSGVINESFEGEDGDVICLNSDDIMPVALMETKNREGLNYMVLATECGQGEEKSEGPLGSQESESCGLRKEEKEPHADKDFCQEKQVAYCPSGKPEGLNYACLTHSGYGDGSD

SMILES	pIC50	inhibition at 5 µM	also measured
COc1ccccc1-c1cc(C(F)F)n2ncc(C(=O)NCc3cccnc3)c2n1 [drawing 224]	5.40		inhibition at 10 µM: 35%
Cc1cccc(Nc2nccc(Nc3cccc(C(=O)NC4CCN(C)CC4)c3)n2)c1 [drawing 285]	5.85	98.6%	
Cc1cccc(Nc2nccc(Nc3cccc(C(=O)NCCCN4CCOCC4)c3)n2)c1 [drawing 279]		92.9%	
O=c1nc2[nH]c3ccc([N+](=O)[O-])cc3nc-2c(=O)[nH]1			Kinase Inhib. 5 uM (%): 26.23%
CC(C)c1nc(Nc2ccc(C(=O)N3CCN(C)CC3)cc2)nc(Nc2ccc3ncsc3c2)n1 [drawing 321]	5.41	90.7%	
Cn1c(=O)c2c(nc3n(CCO)c(-c4ccccc4)cn23)n(C)c1=O [drawing 265]			Kinase Inhib. 5 uM (%): 26.87%
O=C(CC1=Nc2cccc3cccc(c23)NC1=O)NCc1cccc(I)c1 [drawing 346]			inhibition at 10 µM: 22.5%
O=C1NN=C(c2ccccc2)/C1=C1\OC(c2ccccc2)=CS1 [drawing 255]	6.80	69.2%	inhibition at 10 µM: 77.8%
CCN(CC)CCNC(=O)c1cccc(Nc2nccc(Nc3ccc4ncsc4c3)n2)c1 [drawing 236]		102%	
CC(C)c1nc(Nc2ccc3ncsc3c2)nc(N2CCOCC2)n1 [drawing 315]	< 5.30	23.5%	
CC(C)c1nc(Nc2ccc(N)cc2)nc(Nc2cc(C3CC3)[nH]n2)n1 [drawing 324]	< 5.30	20.4%	
Cc1cc(=O)n2nc(CC(=O)c3ccccc3)[nH]c2n1		33.2%	
C[C@@H](Oc1cc(-c2cnn(C3CCNCC3)c2)cnc1N)c1c(Cl)ccc(F)c1Cl [drawing 354]		100%	
Cc1[nH]c2nc(NCc3cccc([N+](=O)[O-])c3)nn2c(=O)c1Cc1ccccc1 [drawing 222]			Kinase Inhib. 10 uM (%): 23.83%
COc1ccc(C(NC(=O)c2n[nH]c(-c3ccccc3)c2C)c2ccncc2)cc1 (stereo not drawn)			Kinase Inhib. 5 uM (%): 31.08%
Cc1ccc(NC=C2C(=O)NN=C2c2ccccc2)cc1 [drawing 233]		43.7%	
O=C1NN=C(c2ccccc2)/C1=C/Nc1ccccc1 [drawing 231]		30.6%	
Cc1cccc(Nc2nccc(Nc3cccc(C(=O)NCCN4CCOCC4)c3)n2)c1 [drawing 244]	5.68	98.4%	
CC(C)c1nc(Nc2cccc(OC(F)(F)F)c2)nc(Nc2cc(C3CC3)n[nH]2)n1	7.40		
CC1=NNC(=O)/C1=C\c1cn(-c2ccccc2)nc1-c1ccccc1 [drawing 266]	5.91	62%	
O=C(NNc1cc(C(F)(F)F)ccc1Cl)c1cccnc1Oc1ccccc1 [drawing 253]	< 4.00		inhibition at 10 µM: 31.2%
O=C(NCCc1ccc(F)cc1)c1cccc(Nc2nccc(Nc3ccc4ncsc4c3)n2)c1 [drawing 235]	6.89		Kinase Inhib. 5 uM (%): 100.68%
O=C1NCCN1CCN1C(=O)c2ccccc2N[C@H]1c1ccccc1 [drawing 254]			inhibition at 10 µM: 20.3%
COc1cccc(Nc2nc(N)c(C(=O)c3c(C)[nH]c4ccccc34)s2)c1 [drawing 247]			inhibition at 10 µM: 28.5%
Cc1ccc(CNC(=O)c2cccc(Nc3nccc(Nc4ccc5ncsc5c4)n3)c2)o1 [drawing 282]	6.71	99.1%	

SMILES	pIC50	inhibition at 5 µM	also measured
Nc1nc(N)n(-c2ccccc2)/c(=N/c2ccccc2)n1 [drawing 258]	< 4.00		inhibition at 10 µM: 34.5%
O=C(NCc1ccco1)c1cccc(Nc2nccc(Nc3ccc4ncsc4c3)n2)c1 [drawing 239]	6.80	101%	
O=C(c1ccc(Nc2ncc(Br)c(Nc3ccc4ncsc4c3)n2)cc1)N1CCCCC1	6.21		
CC(C)c1nc(Nc2ccc(C(=O)NC3CCCCC3)cc2)nc(Nc2ccc3ncsc3c2)n1 [drawing 319]	6.12	98.8%	
COc1ccc(NC(=O)CCn2ccc3ccccc32)cc1 [drawing 337]			inhibition at 10 µM: 29.5%
O=c1cc(Oc2ccccc2)c(-c2nc[nH]n2)nn1-c1ccccc1 [drawing 228]			Kinase Inhib. 10 uM (%): 20.40%
CC(C)c1nc(Nc2ccc(Br)cc2)nc(Nc2ccc3ncsc3c2)n1	6.08		
CC(C)c1nc(Nc2cccc(Br)c2)nc(Nc2ccc3ncsc3c2)n1	7.07		
CC(C)c1nc(NCC2CCCCC2)nc(Nc2ccc3ncsc3c2)n1	6.28		
Cc1ccc(F)cc1S(=O)(=O)Nc1cccc(C(=O)OCC(=O)NC2CCCCC2)c1 [drawing 267]		20%	
O=C(NCc1cccs1)c1cccc(Nc2nccc(Nc3ccc4ncsc4c3)n2)c1 [drawing 273]	6.36	101%	
Nc1nc(Nc2ccc(C(=O)NCc3ccco3)cc2)cc(Nc2ccc3ncsc3c2)n1 [drawing 238]	5.42	49%	
CCOC(=O)c1ccc(NC(=O)CCn2ccc3ccccc32)cc1 [drawing 336]			inhibition at 10 µM: 24.5%
O=C(CCn1ccc2ccccc21)Nc1cnccn1 [drawing 340]			inhibition at 10 µM: 14.3%
FC(F)(F)c1cc(-n2c(Cc3cccc4ccccc34)n[nH]c2=S)cc(C(F)(F)F)c1 [drawing 260]			Kinase Inhib. 5 uM (%): 28.49%
Cc1cccc(C(=O)n2nc(-c3ccco3)nc2NCc2ccccc2)c1 [drawing 294]			Kinase Inhib. 5 uM (%): 25.09%
CC(C)CN(CC(C)C)C(=O)c1cccc(Nc2nccc(Nc3ccc4ncsc4c3)n2)c1 [drawing 287]	5.89	99.6%	
COc1ccc(Nc2nc(N(C)CCO)nc3c2cnn3-c2ccccc2)cc1 [drawing 250]			Kinase Inhib. 5 uM (%): 41.55%
Cc1cc(C)c(NC(=O)c2cc3ccccc3c(=O)s2)c(-c2cc(C)[nH]n2)c1 [drawing 263]			Kinase Inhib. 5 uM (%): 21.55%
CC(C)c1nc(Nc2cccc(Br)c2)nc(Nc2cc(C3CC3)n[nH]2)n1	7.42		
Clc1ccc2nc(NCc3ccccn3)nc(-c3ccccc3)c2c1 [drawing 220]			inhibition at 10 µM: 25%
Cc1c(Br)c([N+](=O)[O-])nn1[C@H](C)C(=O)Nc1c(C)n(C)n(-c2ccccc2)c1=O	< 4.00		inhibition at 10 µM: 34.1%
COc1ccccc1[C@@H]1C(C#N)=C(N)Oc2n[nH]c(C(F)(F)F)c21	5.77		inhibition at 10 µM: 61.6%
O=C1c2ccccc2C(=O)N1C[C@H](O)Cn1nc(-c2cccs2)c2ccccc2c1=O [drawing 268]			Kinase Inhib. 5 uM (%): 20.74%
NC(Cc1ccccc1)C(=O)n1ccc2cccnc21 (stereo not drawn) [drawing 342]			inhibition at 10 µM: 26.9%

SMILES	pIC50	inhibition at 5 µM	also measured
Nc1nc(Nc2ccc(C(=O)N3CCCC4CCCCC43)cc2)cc(Nc2ccc3ncsc3c2)n1 (stereo not drawn)			Kinase Inhib. 5 uM (%): 27.92%
Oc1[nH]nc2nnc(-c3ccccc3)c(-c3ccccc3)c12 [drawing 257]	4.69		inhibition at 10 µM: 35.6%
CCc1cc(Br)ccc1NC(=O)CCn1ccc2ccccc21 [drawing 341]			inhibition at 10 µM: 20.8%
O=C(c1cccc(-c2noc(-c3n[nH]c4c3CCCC4)n2)c1)N1CCCCC1 [drawing 248]	5.39		inhibition at 10 µM: 39.5%
O=C(NNc1nc2ccccc2nc1Cc1ccccc1)c1cccc(Cl)c1 [drawing 229]			inhibition at 10 µM: 24.3%
O=C(NCC(c1cccs1)S(=O)(=O)c1ccc(F)cc1)c1ccccc1 (stereo not drawn) [drawing 297]	6.32	85.1%	
O=C(c1cccc(Nc2nccc(Nc3ccc4ncsc4c3)n2)c1)N1CCCCC1 [drawing 301]	6.41	100%	
O=C(NCCc1ccccc1)c1cccc(Nc2nccc(Nc3ccc4ncsc4c3)n2)c1 [drawing 281]			Kinase Inhib. 5 uM (%): 94.23%
Cc1ccc(-n2cc(-c3cccs3)nc2SCc2n[nH]c(=S)n2Cc2ccccc2)cc1 [drawing 256]			Kinase Inhib. 10 uM (%): 28.13%
COc1ccccc1NC(=O)C1=C(C)Nc2ncnn2C1c1ccc[nH]1 (stereo not drawn)			Kinase Inhib. 5 uM (%): 40.40%
Cc1cc(C)n(-c2cccc(C(=O)NCC3Cc4cc(Cl)cc(-c5cnccn5)c4O3)c2)n1 (stereo not drawn)	< 4.00		Kinase Inhib. 10 uM (%): 29.68%
C[C@H](O)CN(C[C@H](C)O)C(=O)c1cccc(Nc2nccc(Nc3ccc4ncsc4c3)n2)c1 [drawing 283]		101%	
CC(C)c1nc(Nc2ccc(C(=O)NCc3ccccc3)cc2)nc(Nc2ccc3ncsc3c2)n1 [drawing 322]	5.43	97.4%	
O=C(COc1ccccc1)NCC(c1cccs1)S(=O)(=O)c1ccc(Cl)cc1 (stereo not drawn) [drawing 290]	5.75	83.8%	inhibition at 10 µM: 102%
CCOc1nc(Nc2cccc(Cc3nc4ccccc4s3)c2)nc(C(C)C)n1	5.03		
O=C(c1ccccc1)n1nc(-c2ccco2)nc1NCc1ccc(Cl)cc1 [drawing 295]		26.6%	
CC(C)c1nc(Nc2ccc3ncsc3c2)nc(N2CCCC2)n1 [drawing 314]	< 5.30	20.9%	
CCC(C)(C)NC(=O)c1cccc(Nc2nccc(Nc3ccc4ncsc4c3)n2)c1 [drawing 243]	6.21	101%	
Nc1cccc2cccc(N=C(CC(=O)O)C(=O)O)c12 [drawing 344]			inhibition at 10 µM: 24.6%
CC(C)c1nc(Nc2ccc(C(=O)NCC3CCCCC3)cc2)nc(Nc2cccc(Cc3nc4ccccc4s3)c2)n1 [drawing 317]	< 5.30	25.3%	
Nc1nc(Nc2ccc(C(=O)N3CCCCCC3)cc2)cc(Nc2ccc3ncsc3c2)n1 [drawing 272]			Kinase Inhib. 5 uM (%): 22.67%
Cc1cccc(Nc2nccc(Nc3cccc(C(=O)NCc4ccccc4F)c3)n2)c1 [drawing 275]		33.3%	
CSc1sc(-c2n[nH]cc2Br)c2c1C(=O)CC(C)(C)C2 [drawing 259]	5.00		inhibition at 10 µM: 34%
O=C(CCn1ccc2ccccc21)Nc1ccc(F)cc1 [drawing 338]			inhibition at 10 µM: 23.2%
CC(C)(CO)NC(=O)c1cccc(Nc2nccc(Nc3ccc4ncsc4c3)n2)c1 [drawing 271]	6.44	96.3%	

From patent US9963452B2, “Methods, compounds, and compositions for inhibition of ROS” (AUGUSTA PHARMACEUTICALS INC., priority 2013, dated 2018)
